pIC50: −log10 of the molar value. A value given as a limit tells only on which side of the number the result lay.

IC50 and GI50 data for 7 compounds are collected here from patent publication US20260250289A1, “BICYCLIC HETEROCYCLES AND THEIR USE AS WRN INHIBITORS” (Novartis AG, priority 2022, published 2026).

Test [1] addresses T1, WRN helicase (aa N517-P1238) (Homo sapiens, UniProt Q14191).
T1 construct: The core helicase motif of the WRN protein (aa N517-P1238) was produced for this assay; His (N); ZZ (N); 3C protease cleavage site (N); made in house; host or cells: Sf21 insect cells (baculovirus; virus and BIICs made in SF9)
Briefly: WRN ATPase assay (DNA dependent ATP hydrolysis, ADP-Glo). Type of test: biochemical. The conditions noted are these: 3 hours pre-incubation, 300 micromolar ATP, FLAP26 DNA; geometric mean of at least 2. An excerpt: An ATPase assay was set up to measure the DNA dependent ATP hydrolysis activity of WRN helicase. This assay was used also to assess the inhibition properties of compounds of the invention on DNA dependent WRN ATPase activity.
The core helicase motif of the WRN protein (aa N517-P1238) was produced for this assay (protein production as described above). […] The ADP-Glo assay kit (Promega, Madison, WI) allowing the quantification of ADP produced in ATP hydrolysis reactions was used for setting up this assay.
Time course experiments were first performed in order to determine the best enzymatic assay conditions (including buffer conditions, reaction time and concentrations of protein, ATP and DNA substrates). A typical reaction consists of 10 nM WRN protein, 0.2 nM FLAP26, and 300 micromolar ATP in the following assay buffer: 30 mM Tris pH7.5, 2 mM MgCl2, 0.02% BSA, 50 mM NaCl, 0.1% pluronic F127 prepared in DNAse free water.
To evaluate the inhibition properties of compounds of the invention, serial dilutions were prepared in DMSO (10 half log dilutions from a 10 mM DMSO solution). […] The reaction was stopped with the addition of 5 microliters of the first ADP-Glo reagent and incubated for one hour to remove the excess amount of ATP. Afterwards, 10 microliters of ATP detection reagent was added and incubated for an additional hour before reading. Luminescence output was recorded using Tecan 1000 reader, with 5 minutes delay before reading. Each concentration of compound was tested in duplicates in the assay plate.
Following normalization of activity values for the wells to % inhibition (% inhibition=[(high control-sample)/(high control-low control)]×100), IC50 fitting was carried out from the duplicate determinations present on each plate according to [4]. Data analysis can also be carried out using commercially available software designed to derive IC50 values using 4-parameter fits (e.g. GraphPad Prism, XL fit). The reported IC50 values are the geometrical means of at least 2 independent replicates.

In the next test the test system is SW48 cells. Briefly: Proliferation assay SW48 (CellTiterGlo). In kind it is cell-based. The settings on record: Homo sapiens, SW48, 96 h, SW48 colon carcinoma cells, 96 hours, CellTiterGlo; geometric mean of at least 2; read-out: Proliferation Assay SW48 GI50. An excerpt: The colon carcinoma cell lines SW48 (RRID: CVCL_1724), HCT 116 (RRID: CVCL_0291) and SNU-407 (RRID: CVCL_5058) were obtained from ATCC. The WRN-knockdown insensitive colon carcinoma cell line DLD-1 (RRID: CVCL_0248) was obtained from the Korean Cell Line Bank (KCLB), and used to generate a derivative in which the endogenous WRN gene copies were knocked out by CRISPR-mediated editing using standard CRISPR methods. The resulting cell line, DLD1-WRN-KO, was used to assess potential off-target compound effects.
SW48, SNU-407 and DLD1-WRN-KO cells were cultured in growth medium composed of RPMI-1640 (Amimed Cat #1-41F22-1), 2 mM L-Glutamine (Amimed Cat #5-10K50), 10 mM HEPES (Gibco Cat #15630-056), 1 mM sodium pyruvate (Amimed Cat #5-60F00-H), 1× Penicillin-Streptomycin (Amimed Cat #4-01F00-H) and 10% fetal calf serum (Amimed Cat #2-01F30-G, Lot #LB11566P). HCT 116 cells were cultured in growth medium composed of McCoys 5A (Amimed catalog #1-18F01-1), 2 mM L-Glutamine (Amimed Cat #5-10K50), 1× Penicillin-Streptomycin (Amimed Cat #4-01F00-H) and 10% fetal calf serum (Amimed Cat #2-01F30-G, Lot #LB11566P). All cells were maintained at 37° C. in a humidified 5% CO2 incubator.
Following filtration through a Steriflip-NY 20 μm filter (Millipore Cat #SCNY00020), trypsinized cells were seeded in 100 microliters growth medium at 2,000 (SW48) or 1,500 (SNU-407, DLD1-WRN-KO, HCT 116) cells/well into white, clear-bottom 96-well plates (Costar Cat #3903). Three replicate plates were prepared for each compound treatment condition. In addition, one plate (termed “day 0”) was prepared to quantify the number of viable cells at the time of compound addition. Following overnight incubation at 37° C. in a humidified 5% CO2 atmosphere, eight 3-fold serial dilutions of a given compound stock (obtained at a concentration of 10 mM in DMSO and stored at 4° C.) were dispensed directly into each of the triplicate assay plates using a HP 300D non-contact Digital Dispenser (TECAN). The final concentration of DMSO was normalized to 0.1% in all wells. 96 hours after compound addition, cellular ATP levels as a surrogate for cell viability was assessed following addition of 50 microliters CellTiterGlo (Promega Cat #G7573) reagent and luminescence quantification on a MPLEX multi-mode plate-reader (TECAN) following a 10 minute incubation at room temperature. The number of viable cells in the “day 0” plate were quantified identically on the day of compound addition.
For data analysis, the assay background signal that was determined in wells containing medium, but no cells, was subtracted from all other data points prior to further calculations. The extent of growth inhibition and potential cell kill was assessed by comparing the ATP levels (measured using CellTiterGlo, Promega) in compound-treated cells with those present at the time of compound addition. To this end, the following conditional concept was programmatically applied in HELIOS, an in-house software applying a multi-step decision tree to arrive at optimal concentration response curve fits (Gubler et al, SLAS DOI: 10.1177/2472555217752140) to calculate % growth (% G) for each compound-treated well: % G=(T−V0)/V0))*100 when T<V0, and % G=(T−V0)/(V−V0)))*100 when T≥V0, where V0 is the viability level at time of compound addition, while V and T represent vehicle-control and compound-treated viability levels, respectively, at the end of the compound incubation. 100%, 0% and −100% signify absence of growth inhibition, growth stasis, and complete cell kill, respectively. Compound concentrations leading to half-maximal growth inhibition (GI50) and residual cell viability at the highest tested compound concentration (Data (cmax), expressed in percent) were routinely calculated. Data analysis can also be carried out using commercially available software designed to derive IC50 values using 4-parameter fits (e.g. GraphPad Prism, XL fit). […]

The test system of a further test is DLD1-WRN-KO cells. The experiment in a line: Proliferation assay DLD1-WRN-KO (CellTiterGlo, off-target effects). The settings on record: 96 hours, geometric mean of at least 2. Type of test: cell-based. As to the method:
The WRN-knockdown insensitive colon carcinoma cell line DLD-1 (RRID: CVCL_0248) was obtained from the Korean Cell Line Bank (KCLB), and used to generate a derivative in which the endogenous WRN gene copies were knocked out by CRISPR-mediated editing using standard CRISPR methods. The resulting cell line, DLD1-WRN-KO, was used to assess potential off-target compound effects. […]
Three replicate plates were prepared for each compound treatment condition. In addition, one plate (termed “day 0”) was prepared to quantify the number of viable cells at the time of compound addition. Following overnight incubation at 37° C. in a humidified 5% CO2 atmosphere, eight 3-fold serial dilutions of a given compound stock (obtained at a concentration of 10 mM in DMSO and stored at 4° C.) were dispensed directly into each of the triplicate assay plates using a HP 300D non-contact Digital Dispenser (TECAN). The final concentration of DMSO was normalized to 0.1% in all wells. 96 hours after compound addition, cellular ATP levels as a surrogate for cell viability was assessed following addition of 50 microliters CellTiterGlo (Promega Cat #G7573) reagent and luminescence quantification on a MPLEX multi-mode plate-reader (TECAN) following a 10 minute incubation at room temperature. The number of viable cells in the “day 0” plate were quantified identically on the day of compound addition.
For data analysis, the assay background signal that was determined in wells containing medium, but no cells, was subtracted from all other data points prior to further calculations. The extent of growth inhibition and potential cell kill was assessed by comparing the ATP levels (measured using CellTiterGlo, Promega) in compound-treated cells with those present at the time of compound addition. […] 100%, 0% and −100% signify absence of growth inhibition, growth stasis, and complete cell kill, respectively. Compound concentrations leading to half-maximal growth inhibition (GI50) and residual cell viability at the highest tested compound concentration (Data (cmax), expressed in percent) were routinely calculated. Data analysis can also be carried out using commercially available software designed to derive IC50 values using 4-parameter fits (e.g. GraphPad Prism, XL fit). The reported GI50 values are the geometrical means of at least 2 independent replicates.
(ATP-based viability assays read luminescence as a measure of living cells.)

T1 sequence (Q14191 517-1238): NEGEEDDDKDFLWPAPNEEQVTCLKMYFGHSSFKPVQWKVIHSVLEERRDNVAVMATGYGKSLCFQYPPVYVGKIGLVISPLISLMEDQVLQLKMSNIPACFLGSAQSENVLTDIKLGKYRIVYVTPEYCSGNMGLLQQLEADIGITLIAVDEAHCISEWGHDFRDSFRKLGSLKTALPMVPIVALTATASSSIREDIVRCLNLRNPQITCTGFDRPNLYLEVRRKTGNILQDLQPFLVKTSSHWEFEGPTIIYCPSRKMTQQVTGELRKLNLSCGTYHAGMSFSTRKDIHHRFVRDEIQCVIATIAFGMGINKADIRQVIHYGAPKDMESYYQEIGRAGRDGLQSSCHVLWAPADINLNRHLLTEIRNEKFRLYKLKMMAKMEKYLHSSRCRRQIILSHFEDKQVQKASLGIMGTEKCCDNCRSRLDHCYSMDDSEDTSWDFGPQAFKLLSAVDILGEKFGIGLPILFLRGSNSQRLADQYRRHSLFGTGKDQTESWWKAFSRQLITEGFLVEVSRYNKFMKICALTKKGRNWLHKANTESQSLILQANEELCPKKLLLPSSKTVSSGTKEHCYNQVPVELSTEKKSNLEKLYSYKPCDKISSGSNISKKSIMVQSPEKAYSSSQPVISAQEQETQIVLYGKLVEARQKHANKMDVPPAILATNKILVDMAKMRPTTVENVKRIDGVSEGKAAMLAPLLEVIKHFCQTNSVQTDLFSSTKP

A word on the pIC50: it is −log10 of the IC50, conventionally taken in molar units. Read a high pIC50 as a low IC50. In turn, `CC(=O)N1CCN(c2c(C)n(CC(=O)Nc3ccc(C(F)(F)F)cc3)c3nc(N4CCC5CC54)nn3c2=O)CC1` (stereo not drawn) [Example 6, 2-(6-(4-acetylpiperazin-1-yl)-2-(2-azabicyclo[3.1.0]hexan-2-yl)-5-methyl-7-oxo-[1,2,4]triazolo[1,5-a]pyrimidin-4(7H)-yl)-N-(4-(trifluoromethyl)phenyl)acetamide] had a pIC50 in test [1] of 5.70. Further, the GI50 in the test on SW48 cells was 7000 nM; with DLD1-WRN-KO cells it was above 10000 nM.
The compound `CCc1c(N2CCN(C(=O)c3ncc4c(c3O)OCC4)CC2)c(=O)n2nc(C3=CCOCC3)nc2n1CC(=O)Nc1ccc(C(F)(F)F)cc1Cl` [Example 11, N-(2-chloro-4-(trifluoromethyl)phenyl)-2-(2-(3,6-dihydro-2H-pyran-4-yl)-5-ethyl-6-(4-(7-hydroxy-2,3-dihydrofuro[3,2-c]pyridine-6-carbonyl)piperazin-1-yl)-7-oxo-[1,2,4]triazolo[1,5-a]pyrimidin-4(7H)-yl)acetamide] had a pIC50 in test [1] of 7.30. Further, the values for the GI50 with SW48 cells and in the test with DLD1-WRN-KO cells were 60 nM and above 10000 nM, respectively.
Turning to `CCc1c(N2CCN(C(=O)c3nn(C)c(=O)[nH]3)CC2)c(=O)n2nc(C3=CCCC3)nc2n1CC(=O)Nc1ccc(C(F)(F)F)cc1` [Example 12, 2-(2-(cyclopent-1-en-1-yl)-5-ethyl-6-(4-(1-methyl-5-oxo-4,5-dihydro-1H-1,2,4-triazole-3-carbonyl)piperazin-1-yl)-7-oxo-[1,2,4]triazolo[1,5-a]pyrimidin-4(7H)-yl)-N-(4-(trifluoromethyl)phenyl)acetamide], the pIC50 in test [1] was 8.00. The results for the GI50 in the test with SW48 cells and in the test with DLD1-WRN-KO cells were 800 nM and above 10000 nM, respectively.
The compound `Cc1c(N2CCN(C(=O)c3c(F)ccc(F)c3O)CC2)c(=O)n2nc(C3=CCOCC3)nc2n1CC(=O)Nc1ccc(C(F)(F)F)cc1` [Example 13, 2-(6-(4-(3,6-difluoro-2-hydroxybenzoyl)piperazin-1-yl)-2-(3,6-dihydro-2H-pyran-4-yl)-5-methyl-7-oxo-[1,2,4]triazolo[1,5-a]pyrimidin-4(7H)-yl)-N-(4-(trifluoromethyl)phenyl)acetamide] had a pIC50 in test [1] of 7.52. Further, the GI50 in the test with SW48 cells is 300 nM; in the test on DLD1-WRN-KO cells, above 10000 nM.
Compound `CCc1c(N2CCN(C(=O)c3c(O)ccc4cccnc34)CC2)c(=O)n2nc(C3=CCOCC3)nc2n1CC(=O)Nc1ccc(C(F)(F)F)cc1` [Example 14, 2-(2-(3,6-dihydro-2H-pyran-4-yl)-5-ethyl-6-(4-(7-hydroxyquinoline-8-carbonyl)piperazin-1-yl)-7-oxo-[1,2,4]triazolo[1,5-a]pyrimidin-4(7H)-yl)-N-(4-(trifluoromethyl)phenyl)acetamide] showed a pIC50 in test [1] of 7.40. The GI50 is 200 nM in the test on SW48 cells and above 10000 nM in the test on DLD1-WRN-KO cells.
In test [1], `Cc1c(N2CCN(C(=O)c3c(O)cccc3O)CC2)c(=O)n2nc(C3=CCOCC3)nc2n1CC(=O)Nc1ccc(C(F)(F)F)cc1` [Example 15, 2-(2-(3,6-dihydro-2H-pyran-4-yl)-6-(4-(2,6-dihydroxybenzoyl)piperazin-1-yl)-5-methyl-7-oxo-[1,2,4]triazolo[1,5-a]pyrimidin-4(7H)-yl)-N-(4-(trifluoromethyl)phenyl)acetamide] showed a pIC50 of 7.30. For the same compound, the GI50 in the test on SW48 cells was 4000 nM; with DLD1-WRN-KO cells, above 10000 nM.
The compound `Cc1c(N2CCN(C(=O)c3ccc(F)c(F)c3O)CC2)c(=O)n2nc(C3=CCOCC3)nc2n1CC(=O)Nc1ccc(C(F)(F)F)cc1` [Example 16, 2-(6-(4-(3,4-difluoro-2-hydroxybenzoyl)piperazin-1-yl)-2-(3,6-dihydro-2H-pyran-4-yl)-5-methyl-7-oxo-[1,2,4]triazolo[1,5-a]pyrimidin-4(7H)-yl)-N-(4-(trifluoromethyl)phenyl)acetamide] had a pIC50 in test [1] of 7.30. Besides, the GI50 is 500 nM with SW48 cells and above 10000 nM in the test on DLD1-WRN-KO cells.
